Measurements published in article PMC5363373, “Zirconium tetraazamacrocycle complexes display extraordinary stability and provide a new strategy for zirconium-89-based radiopharmaceutical development” (Chemical Science, 2016).

Legend:
[1] = In vitro EDTA challenge study; type: physicochemical
Experimental: In vitro EDTA challenge study. In vitro EDTA challenge study was carried out by adding 10 µL of each 89Zr-labeled complex (70 μCi, 2.59 MBq) to 500 µL of EDTA (10 mM, 50 mM and 100 mM: pH 5 and pH 7) with a 1:100, 1:500, and 1:1000 ratio of ligand/EDTA. The solutions (n=4) were incubated at 37 °C for 7 days in a thermomixer. Samples were analyzed at 30 min, 1 h, 3 h, 6 h, 1 d, 3 d, 5 d and 7 d post administration to EDTA by radio-TLC using Varian ITLC-SA strips and 0.1 M EDTA (pH 5) as the mobile phase and gamma counting using an energy window of 500-1500 keV and standard protocols .

[2] = In vitro metal competition study; type: physicochemical; settings: PBS pH 7.4, 37 C
Experimental: In vitro Metal Competition study. To a solution of metal cations [iron (III) chloride, cobalt (II) chloride, zinc (II) chloride, copper (II) chloride, magnesium (II) chloride, gallium (III) nitrate, gadolinium (III) chloride] (1 mM, 200 µL), was added 89Zr-labeled complex (0.1 mM, 10 µL, 80 μCi, 2.96 MBq) in PBS, pH 7.4. The resulting solutions (n = 3) were incubated at 37 °C for 7 days in a thermomixer. Dissociation of 89Zr from 89Zr-complexes was monitored by radio-TLC at 2 h, 1 d, 4 d and 7 d time point. All studies were performed in triplicate.

[3] = In vitro serum stability (radio-ITLC); type: in vitro ADME; settings: 37 C, after 7 days
Experimental: In vitro serum stability. In vitro serum stability was carried out by adding 10 µL of each 89Zr-labeled complex (70 μCi, 2.59 MBq) to 500 µL of human serum. The solutions (n=4) were incubated at 37 °C for 7 days and were analyzed daily for 1 week by radio -TLC using Varian ITLC-SA strips and 0.1 M EDTA (pH 5) as the mobile phase and gamma counting using an energy window of 500-1500 keV and standard protocols . Serum samples were also analyzed after 7 days by size exclusion chromatography (SEC) using a Superdex 200 10/300 GLTM column (GE Healthcare Life Sciences, Piscataway, NJ) and phosphate buffered saline (PBS) as eluent with a flow rate of 0.5 mL/min.
Figure S30. Radio-ITLC of 89Zr-DOTA solution in human serum at 37 °C after 0 h (a) and 7 days (b). […]

[4] = Biodistribution studies; type: in vivo, female NIH Swiss mice; settings: mice, over the 72 h experiment
Experimental: Biodistribution Studies. Biodistribution studies were conducted using a modified literature procedure. 7 Briefly, female NIH Swiss mice (6-8 wk old, n=6) were injected with each 89Zr-labeled complex (0.55 MBq (15 μCi)/mouse) via the tail vein, and sacrificed at 2, 4, 24, 48, 72 h post-injection. Organs and tissues of interest were excised, weighted, and counted on a Perkin Elmer 2480 Wizard® gamma counter (Waltham, MA). The percent injected dose per gram (%ID/g) and percent injected dose per organ (%ID/organ) were calculated by comparison to a weighed, counted standard for each group (Tables S9 – S12).
Statistical Methods. All of the data are presented as mean±SD or mean (95% Confidence Interval). For statistical classification a student’s t test (two-tailed, unpaired) was performed using GraphPad Prism (San Diego, CA). Any p<0.05 was considered significant.

NC(=O)CN1CCN(CC(N)=O)CCN(CC(N)=O)CCN(CC(N)=O)CC1.[89Zr+4] [89Zr-DOTAM]
% Intact of 89Zr-complexes ([1]; EDTA 100-fold, pH 5.0, 37 C, 1 h): 97.7 ± 0.2%
% Intact of 89Zr-complexes ([1]; EDTA 100-fold, pH 5.0, 37 C, 1 d): 84.4 ± 0.9%
% Intact of 89Zr-complexes ([1]; EDTA 100-fold, pH 5.0, 37 C, 3 d): 67.6 ± 0.9%
% Intact of 89Zr-complexes ([1]; EDTA 100-fold, pH 5.0, 37 C, 5 d): 49.6 ± 0.6%
% Intact of 89Zr-complexes ([1]; EDTA 100-fold, pH 5.0, 37 C, 7 d): 42.3 ± 1.2%
% Intact of 89Zr-complexes ([1]; EDTA 100-fold, pH 7.0, 37 C, 1 h): 99.0 ± 0.2%
% Intact of 89Zr-complexes ([1]; EDTA 100-fold, pH 7.0, 37 C, 1 d): 90.9 ± 0.8%
% Intact of 89Zr-complexes ([1]; EDTA 100-fold, pH 7.0, 37 C, 3 d): 86.1 ± 1.1%
% Intact of 89Zr-complexes ([1]; EDTA 100-fold, pH 7.0, 37 C, 5 d): 75.7 ± 0.8%
% Intact of 89Zr-complexes ([1]; EDTA 100-fold, pH 7.0, 37 C, 7 d): 72.1 ± 2.0%
% Intact of 89Zr-complexes ([1]; EDTA 500-fold, pH 5.0, 37 C, 1 h): 97.5 ± 0.6%
% Intact of 89Zr-complexes ([1]; EDTA 500-fold, pH 5.0, 37 C, 1 d): 80.0 ± 1.2%
% Intact of 89Zr-complexes ([1]; EDTA 500-fold, pH 5.0, 37 C, 3 d): 47.0 ± 0.4%
% Intact of 89Zr-complexes ([1]; EDTA 500-fold, pH 5.0, 37 C, 5 d): 22.8 ± 1.8%
% Intact of 89Zr-complexes ([1]; EDTA 500-fold, pH 5.0, 37 C, 7 d): 12.2 ± 1.5%
% Intact of 89Zr-complexes ([1]; EDTA 500-fold, pH 7.0, 37 C, 1 h): 98.5 ± 0.2%
% Intact of 89Zr-complexes ([1]; EDTA 500-fold, pH 7.0, 37 C, 1 d): 90.8 ± 0.9%
% Intact of 89Zr-complexes ([1]; EDTA 500-fold, pH 7.0, 37 C, 3 d): 77.5 ± 1.4%
% Intact of 89Zr-complexes ([1]; EDTA 500-fold, pH 7.0, 37 C, 5 d): 66.6 ± 0.5%
% Intact of 89Zr-complexes ([1]; EDTA 500-fold, pH 7.0, 37 C, 7 d): 58.1 ± 1.4%
% Intact of 89Zr-complexes ([1]; EDTA 1000-fold, pH 5.0, 37 C, 1 h): 96.5 ± 0.2%
% Intact of 89Zr-complexes ([1]; EDTA 1000-fold, pH 5.0, 37 C, 1 d): 77.0 ± 1.3%
% Intact of 89Zr-complexes ([1]; EDTA 1000-fold, pH 5.0, 37 C, 3 d): 38.3 ± 1.5%
% Intact of 89Zr-complexes ([1]; EDTA 1000-fold, pH 5.0, 37 C, 5 d): 13.4 ± 1.6%
% Intact of 89Zr-complexes ([1]; EDTA 1000-fold, pH 5.0, 37 C, 7 d): 5.7 ± 1.0%
% Intact of 89Zr-complexes ([1]; EDTA 1000-fold, pH 7.0, 37 C, 1 h): 98.3 ± 0.1%
% Intact of 89Zr-complexes ([1]; EDTA 1000-fold, pH 7.0, 37 C, 1 d): 88.6 ± 0.4%
% Intact of 89Zr-complexes ([1]; EDTA 1000-fold, pH 7.0, 37 C, 3 d): 69.9 ± 1.8%
% Intact of 89Zr-complexes ([1]; EDTA 1000-fold, pH 7.0, 37 C, 5 d): 58.2 ± 1.3%
% Intact of 89Zr-complexes ([1]; EDTA 1000-fold, pH 7.0, 37 C, 7 d): 47.4 ± 0.9%
% Intact of 89Zr-complexes ([2]; Co2+, 2 h): 92.6 ± 0.5%
% Intact of 89Zr-complexes ([2]; Co2+, 1 d): 88.6 ± 0.3%
% Intact of 89Zr-complexes ([2]; Co2+, 4 d): 85.8 ± 0.4%
% Intact of 89Zr-complexes ([2]; Co2+, 7 d): 80.9 ± 1.0%
% Intact of 89Zr-complexes ([2]; Cu2+, 2 h): 91.9 ± 0.1%
% Intact of 89Zr-complexes ([2]; Cu2+, 1 d): 86.7 ± 0.7%
% Intact of 89Zr-complexes ([2]; Cu2+, 4 d): 80.5 ± 0.8%
% Intact of 89Zr-complexes ([2]; Cu2+, 7 d): 74.1 ± 1.2%
% Intact of 89Zr-complexes ([2]; Fe3+, 2 h): 92.4 ± 0.5%
% Intact of 89Zr-complexes ([2]; Fe3+, 1 d): 89.8 ± 0.2%
% Intact of 89Zr-complexes ([2]; Fe3+, 4 d): 87.2 ± 0.8%
% Intact of 89Zr-complexes ([2]; Fe3+, 7 d): 85.8 ± 0.8%
% Intact of 89Zr-complexes ([2]; Ga3+, 2 h): 92.9 ± 0.7%
% Intact of 89Zr-complexes ([2]; Ga3+, 1 d): 87.9 ± 0.7%
% Intact of 89Zr-complexes ([2]; Ga3+, 4 d): 86.6 ± 2.3%
% Intact of 89Zr-complexes ([2]; Ga3+, 7 d): 80.3 ± 0.4%
% Intact of 89Zr-complexes ([2]; Gd3+, 2 h): 93.9 ± 0.3%
% Intact of 89Zr-complexes ([2]; Gd3+, 1 d): 90.6 ± 0.3%
% Intact of 89Zr-complexes ([2]; Gd3+, 4 d): 88.8 ± 0.6%
% Intact of 89Zr-complexes ([2]; Gd3+, 7 d): 86.3 ± 0.1%
% Intact of 89Zr-complexes ([2]; Mg2+, 2 h): 93.6 ± 1.0%
% Intact of 89Zr-complexes ([2]; Mg2+, 1 d): 90.5 ± 0.5%
% Intact of 89Zr-complexes ([2]; Mg2+, 4 d): 87.4 ± 0.9%
% Intact of 89Zr-complexes ([2]; Mg2+, 7 d): 93.1 ± 0.8%
% Intact of 89Zr-complexes ([2]; Zn2+, 2 h): 94.1 ± 0.5%
% Intact of 89Zr-complexes ([2]; Zn2+, 1 d): 89.4 ± 1.9%
% Intact of 89Zr-complexes ([2]; Zn2+, 4 d): 71.9 ± 1.7%
% Intact of 89Zr-complexes ([2]; Zn2+, 7 d): 57.0 ± 1.8%
Radio-ITLC peak of complex in human serum [3]: 99.2%
Radioactivity retention in liver and spleen tissues [4]: retained elevated levels of radioactivity
